From patent publication US11884675B2, “Heterocyclic compounds as triggering receptor expressed on myeloid cells 2 agonists and methods of use” (AMGEN INC., priority 2020, dated 2024)

Each compound was assayed against hTREM2 (Homo sapiens, UniProt Q9NZC2) (assay: TREM2 activity by cellular Syk phosphorylation (AlphaScreen/AlphaLISA) in TREM2/DAP12-HEK cells, used for Examples 1-305). Settings: HEK293 Cells.
Assay type: cell-based
Parameters: expressed in transfected cells
From the text: In vitro Measurement of Triggering Receptor Expressed on Myeloid Cells 2 activity using cellular phosphorylation of Spleen Tyrosine Kinase (“Syk”) Assays used for Examples 1-305
Pharmacological measurements of TREM2 signaling through DAP12 were made with TREM2 and DAP12 overexpressing HEK293 cells stable cell lines that had been single-cell cloned (“TREM2/DAP12-HEK”). The readout of the TREM2 signaling utilized Perkin Elmer AlphaScreen/AlphaLISA technology monitoring the phosphorylation levels of the Syk kinase. TREM2/DAP12-HEK cell lines were cultured in DMEM-F12 (Corning 10-092-CM) supplemented with 1X Penicillin/Streptomycin (Corning 30-002-CI), 1X GlutaMAX (Gibco 35050-061), and 10% Fetal Bovine Serum (Life Technologies 10099) referred to as “HEK Culture Medium”. Suspensions of TREM2/DAP12-HEK cells were prepared in HEK Culture Medium and dispensed into 384-well poly-D-lysine coated microplates (Corning 354661) at a density of 20,000 cells/well using a Multidrop Combi peristaltic microplate dispenser (Thermo), 25 μL volume of cell suspension/well. Plates containing cells were then incubated for 20 hours in a humidified cell culture incubator at 37° C. with 5% CO2 (Thermo). After incubation, culture medium was removed from all wells of each microplate and replaced with 20 μL of “Assay Buffer” comprised of DMEM-F12 (Corning 10-092-CM) supplemented with 1X Penicillin/Streptomycin (Corning 30-002-CI) and 0.1% Pluronic F-68 Polyol (MP Biomedical 092750049) using a Bravo 384-well pipette-based liquid handling system (Agilent). Assay Buffer contained diluted test articles (in 1% final DMSO concentration for compounds) or 100 nM anti-human/mouse TREM2 antibody (R&D Systems MAB17291) as a positive control, or 100 nM or rat IgG2B isotype Ab as a negative control (R&D Systems MAB0061). The plates were incubated with test articles and controls for 45 minutes at room temperature and then the medium was aspirated/removed from each well of the plates. A Multidrop Combi peristaltic liquid handler (Thermo) was used to dispense 15 μL/well of “Cell Lysis Immunoassay Buffer”. The Cell Lysis Immunoassay Buffer contained M-PER Mammalian Protein Extraction Reagent (Pierce/ThermoFisher 78505), 1X Halt Phosphatase Inhibitor Cocktail (ThermoFisher #78427), 0.1875 nM anti-phospho-Syk (Tyr525/526) (C87C1) rabbit mAb (Cell Signaling Technologies catalog #2710), and 1.5 nM biotinylated Mouse anti-human Syk (4D10) antibody (BD Biosciences, catalog #624008). Plates were incubated for 1 hour at room temperature after the addition of the Cell Lysis Immunoassay Buffer. The Multidrop Combi liquid handler was used to dispense 15 μL of AlphaScreen Acceptor Bead Solution containing 7.5 μg/mL anti-rabbit IgG (Fc specific) AlphaLISA Acceptor Beads (Perkin Elmer AL104R) in 1X Immunoassay buffer (Perkin Elmer AL000F) to each well of the microplates. The plates were incubated for 2 hours at room temperature. Following the incubation with the AlphaLISA Acceptor Bead Solution, a Multidrop Combi liquid handler (Thermo) was used to dispense 15 μL of AlphaScreen Donor Bead Solution containing 30 μg/mL of AlphaScreen Streptavidin Donor beads (Perkin Elmer 6760002B) in 1X Immunoassay buffer (Perkin Elmer AL000F) to each well of the microplates. Microplates were incubated for 2 hours protected from light sources as the AlphaScreen reagents are light sensitive. Once the final incubation was completed, an AlphaScreen signal was acquired from the donor and acceptor beads using an Envision high throughput multi-modal microplate reader (Perkin Elmer) calibrated to the plate type with the AlphaScreen mirror and filter-set in 384-well mode, 680 nanometer excitation wavelength. The total measurement time per well was 550 milliseconds with a 180 millisecond excitation time. […]

Chain of hTREM2 (Q9NZC2 19-230): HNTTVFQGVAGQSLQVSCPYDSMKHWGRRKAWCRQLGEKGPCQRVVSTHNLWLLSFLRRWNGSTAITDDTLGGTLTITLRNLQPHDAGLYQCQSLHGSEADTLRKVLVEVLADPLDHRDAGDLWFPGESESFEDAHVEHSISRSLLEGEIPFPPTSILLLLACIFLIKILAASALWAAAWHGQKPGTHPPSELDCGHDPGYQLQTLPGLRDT
Chain of hTREM2 (O43914 22-113 partner): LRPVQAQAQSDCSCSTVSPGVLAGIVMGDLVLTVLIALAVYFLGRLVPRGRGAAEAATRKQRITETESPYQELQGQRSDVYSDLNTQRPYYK

EC50, 3 to 100 µM:
Cc1ccc2c(n1)nc(N1CCO[C@@H](c3cnn(C)c3)C1)nc2[C@H]1CC[C@@H](C(F)(F)F)CC1 [Example 142, 7-methyl-2-((2S)-2-(1-methyl-1H-pyrazol-4-yl)-4-morpholinyl)-4-(cis-4-(trifluoromethyl)cyclohexyl)pyrido [2,3-d]pyrimidine]
CCc1ccc2c(-c3ccc(Cl)cc3F)nc(N3CCO[C@@H](c4cnn(C)c4)C3)cc2n1 [Example 238, (S)-4-(5-(4-chloro-2-fluorophenyl)-2-ethyl-1,6-naphthyridin-7-yl)-2-(1-methyl-1H-pyrazol-4-yl)morpholine]

EC50, 0.5 to 3 µM:
Cn1cc([C@H]2CN(c3nc(-c4ccc(Cl)cc4F)c4cccnc4n3)CCO2)cn1 [Example 83, 4-(4-chloro-2-fluorophenyl)-2-((2S)-2-(1-methyl-1H-pyrazol-4-yl)-4-morpholinyl)pyrido[2,3-d]pyrimidine]
CN1Cc2c(-c3ccc(Cl)cc3F)cc(N3CCO[C@H](c4cnn(C)c4)C3)nc2C1=O [Example 304, (R)-4-(4-chloro-2-fluorophenyl)-6-methyl-2-(2-(1-methyl-1H-pyrazol-4-yl)morpholino)-5,6-dihydro-7H-pyrrolo [3,4-b]pyridin-7-one]
Cc1cc([C@@H]2CN(c3nc4nc(C)cnc4c([C@H]4C[C@H](C(F)(F)F)C4)n3)CCO2)cnn1 [Example 281, (R)-4-(7-methyl-4-((1r,3S)-3-(trifluoromethyl)cyclobutyl)pteridin-2-yl)-2-(6-methylpyridazin-4-yl)morpholine]
Cc1nc2nc([C@H]3CCO[C@H](c4cnn(C)c4)C3)cc(-c3ccc(F)cc3F)c2nc1C [Example 265, 8-(2,4-difluorophenyl)-2,3-dimethyl-6-((2S,4S)-2-(1-methyl-1H-pyrazol-4-yl)tetrahydro-2H-pyran-4-yl)pyrido[2,3-b]pyrazine]
Cn1cc([C@H]2CN(c3nc(-c4ccc(Cl)cc4F)c4ccc(Cl)nc4n3)CCO2)cn1 [Example 283, (S)-4-(7-chloro-4-(4-chloro-2-fluorophenyl)pyrido[2,3-d]pyrimidin-2-yl)-2-(1-methyl-1H-pyrazol-4-yl)morpholine]

EC50, 0.05 to 0.5 µM:
Cc1nc2nc([C@H]3CCO[C@@H](c4cnn(C5CC5)c4)C3)nc(-c3ccc(F)cc3F)c2nc1C [Example 305, 2-((2R,4S)-2-(1-cyclopropyl-1H-pyrazol-4-yl)tetrahydro-2H-pyran-4-yl)-4-(2,4-difluorophenyl)-6,7-dimethylpteridine]
Cc1nc2nc(N3CCO[C@@H](c4cnn(C)c4)C3)nc(C3CCCC3)c2nc1C [Example 140, 4-cyclopentyl-6,7-dimethyl-2-((2S)-2-(1-methyl-1H-pyrazol-4-yl)-4-morpholinyl)pteridine]
Cc1cnc2c(-c3ccc(Cl)cc3F)nc([C@H]3CCO[C@@H](c4cnn(C)c4)C3)cc2n1 (single isomer, unassigned) [Example 191]
Cc1cnc2c(-c3ccc(Cl)cc3F)nc(N3CCO[C@@H](c4cnc(C)nc4)C3)nc2n1 [Example 4, 4-(4-chloro-2-fluorophenyl)-7-methyl-2-((2S)-2-(2-methyl-5-pyrimidinyl)-4-morpholinyl)pteridine]
Cc1cnc2c(n1)nc(N1CCO[C@@H](c3cnn(C)c3)C1)nc2[C@H]1C[C@H](C(F)(F)F)C1 [Example 11, 7-methyl-2-((2S)-2-(1-methyl-1H-pyrazol-4-yl)-4-morpholinyl)-4-(trans-3-(trifluoromethyl)cyclobutyl)pteridine]
Cc1cc([C@@H]2C[C@H](c3nc(-c4ccc(F)cc4F)c4nc(C)c(C)nc4n3)CCO2)ccn1 (single isomer, unassigned) [Example 210]
Cc1cc([C@@H]2CN(c3nc(-c4ccc(Cl)cc4F)c4ccc(C)nc4n3)CCO2)cnn1 (single isomer, unassigned) [Example 87]
CCc1ccc2c(-c3ccc(F)cc3F)nc(N3CCO[C@@H](c4cnn(C)c4)C3)nc2n1 [Example 167, 4-(2,4-difluorophenyl)-7-ethyl-2((2S)-2-(1-methyl-1H-pyrazol-4-yl)-4-morpholinyl) pyrido[2,3-d]pyrimidine]
Cc1cc(F)ccc1-c1nc(N2CCO[C@@H](c3cnn(C)c3)C2)nc2nc(C)c(C)nc12 [Example 59, 4-(4-fluoro-2-methylphenyl)-6,7-dimethyl-2-((2S)-2-(1-methyl-1H-pyrazol-4-yl)-4-morpholinyl)pteridine]
Cc1nc2nc(N3CCO[C@@H](c4cnn(C)c4)C3)nc(-c3ccc(Cl)cn3)c2nc1C [Example 291, (S)-4-(4-(5-chloropyridin-2-yl)-6,7-dimethylpteridin-2-yl)-2-(1-methyl-1H-pyrazol-4-yl)morpholine]

EC50, ≤ 0.05 µM:
Cc1nc2nc(N3CCO[C@@H](c4cnn(C)c4)C3)nc([C@H]3CC[C@H](C)CC3)c2nc1C [Example 136, 6,7-dimethyl-4-(trans-4-methylcyclohexyl)-2-((2S)-2-(1-methyl-1H-pyrazol-4-yl)-4-morpholinyl)pteridine]
Cc1cc2c(-c3ccc(Cl)cc3F)nc([C@H]3CCO[C@@H](c4cnn(C5CC5)c4)C3)nc2nc1C (single isomer, unassigned) [Example 199]
Cc1nc2nc([C@@H]3CCO[C@H](c4cnn(C)c4)C3)nc(-c3ccc(Cl)cc3F)c2nc1C [Example 242, 4-(4-chloro-2-fluorophenyl)-6,7-dimethyl-2-((2S,4R)-2-(1-methyl-1H-pyrazol-4-yl)tetrahydro-2H-pyran-4-yl)pteridine]
Cc1cc([C@@H]2C[C@@H](c3nc(-c4ccc(Cl)cc4F)c4nc(C)c(C)nc4n3)CCO2)ccn1 [Example 272, 4-(4-chloro-2-fluorophenyl)-6,7-dimethyl-2-((2S,4S)-2-(2-methylpyridin-4-yl)tetrahydro-2H-pyran-4-yl)pteridine]
Cc1cc([C@H]2CN(c3nc(C4CCC(F)(F)CC4)c4nc(C)c(C)nc4n3)CCO2)ccn1 [Example 139, 4-(4,4-difluorocyclohexyl)-6,7-dimethyl-2-((2S)-2-(2-methyl-4-pyridinyl)-4-morpholinyl)pteridine]

hTREM2 Emax, + (Emax>45 and ≤100):
CCc1ccc2c(-c3ccc(Cl)cc3F)nc(N3CCO[C@@H](c4cnn(C)c4)C3)cc2n1 [Example 238, (S)-4-(5-(4-chloro-2-fluorophenyl)-2-ethyl-1,6-naphthyridin-7-yl)-2-(1-methyl-1H-pyrazol-4-yl)morpholine]

hTREM2 Emax, +++ (Emax>150 and ≤250):
Cc1nc2nc(N3CCO[C@@H](c4cnn(C)c4)C3)nc([C@H]3CC[C@H](C)CC3)c2nc1C [Example 136, 6,7-dimethyl-4-(trans-4-methylcyclohexyl)-2-((2S)-2-(1-methyl-1H-pyrazol-4-yl)-4-morpholinyl)pteridine]
Cc1nc2nc([C@H]3CCO[C@@H](c4cnn(C5CC5)c4)C3)nc(-c3ccc(F)cc3F)c2nc1C [Example 305, 2-((2R,4S)-2-(1-cyclopropyl-1H-pyrazol-4-yl)tetrahydro-2H-pyran-4-yl)-4-(2,4-difluorophenyl)-6,7-dimethylpteridine]
CN1Cc2c(-c3ccc(Cl)cc3F)cc(N3CCO[C@H](c4cnn(C)c4)C3)nc2C1=O [Example 304, (R)-4-(4-chloro-2-fluorophenyl)-6-methyl-2-(2-(1-methyl-1H-pyrazol-4-yl)morpholino)-5,6-dihydro-7H-pyrrolo [3,4-b]pyridin-7-one]
Cc1cc([C@@H]2CN(c3nc4nc(C)cnc4c([C@H]4C[C@H](C(F)(F)F)C4)n3)CCO2)cnn1 [Example 281, (R)-4-(7-methyl-4-((1r,3S)-3-(trifluoromethyl)cyclobutyl)pteridin-2-yl)-2-(6-methylpyridazin-4-yl)morpholine]
Cc1nc2nc([C@@H]3CCO[C@H](c4cnn(C)c4)C3)nc(-c3ccc(Cl)cc3F)c2nc1C [Example 242, 4-(4-chloro-2-fluorophenyl)-6,7-dimethyl-2-((2S,4R)-2-(1-methyl-1H-pyrazol-4-yl)tetrahydro-2H-pyran-4-yl)pteridine]
Cc1cnc2c(-c3ccc(Cl)cc3F)nc(N3CCO[C@@H](c4cnc(C)nc4)C3)nc2n1 [Example 4, 4-(4-chloro-2-fluorophenyl)-7-methyl-2-((2S)-2-(2-methyl-5-pyrimidinyl)-4-morpholinyl)pteridine]
Cc1nc2nc([C@H]3CCO[C@H](c4cnn(C)c4)C3)cc(-c3ccc(F)cc3F)c2nc1C [Example 265, 8-(2,4-difluorophenyl)-2,3-dimethyl-6-((2S,4S)-2-(1-methyl-1H-pyrazol-4-yl)tetrahydro-2H-pyran-4-yl)pyrido[2,3-b]pyrazine]
Cc1cc([C@H]2CN(c3nc(C4CCC(F)(F)CC4)c4nc(C)c(C)nc4n3)CCO2)ccn1 [Example 139, 4-(4,4-difluorocyclohexyl)-6,7-dimethyl-2-((2S)-2-(2-methyl-4-pyridinyl)-4-morpholinyl)pteridine]
Cc1cc(F)ccc1-c1nc(N2CCO[C@@H](c3cnn(C)c3)C2)nc2nc(C)c(C)nc12 [Example 59, 4-(4-fluoro-2-methylphenyl)-6,7-dimethyl-2-((2S)-2-(1-methyl-1H-pyrazol-4-yl)-4-morpholinyl)pteridine]

hTREM2 Emax, ++++ (Emax>250):
Cn1cc([C@H]2CN(c3nc(-c4ccc(Cl)cc4F)c4cccnc4n3)CCO2)cn1 [Example 83, 4-(4-chloro-2-fluorophenyl)-2-((2S)-2-(1-methyl-1H-pyrazol-4-yl)-4-morpholinyl)pyrido[2,3-d]pyrimidine]
Cc1cc2c(-c3ccc(Cl)cc3F)nc([C@H]3CCO[C@@H](c4cnn(C5CC5)c4)C3)nc2nc1C (single isomer, unassigned) [Example 199]
Cc1cnc2c(-c3ccc(Cl)cc3F)nc([C@H]3CCO[C@@H](c4cnn(C)c4)C3)cc2n1 (single isomer, unassigned) [Example 191]
Cc1cc([C@@H]2C[C@H](c3nc(-c4ccc(F)cc4F)c4nc(C)c(C)nc4n3)CCO2)ccn1 (single isomer, unassigned) [Example 210]
Cc1cc([C@@H]2CN(c3nc(-c4ccc(Cl)cc4F)c4ccc(C)nc4n3)CCO2)cnn1 (single isomer, unassigned) [Example 87]
Cc1cc([C@@H]2C[C@@H](c3nc(-c4ccc(Cl)cc4F)c4nc(C)c(C)nc4n3)CCO2)ccn1 [Example 272, 4-(4-chloro-2-fluorophenyl)-6,7-dimethyl-2-((2S,4S)-2-(2-methylpyridin-4-yl)tetrahydro-2H-pyran-4-yl)pteridine]
CCc1ccc2c(-c3ccc(F)cc3F)nc(N3CCO[C@@H](c4cnn(C)c4)C3)nc2n1 [Example 167, 4-(2,4-difluorophenyl)-7-ethyl-2((2S)-2-(1-methyl-1H-pyrazol-4-yl)-4-morpholinyl) pyrido[2,3-d]pyrimidine]
Cc1nc2nc(N3CCO[C@@H](c4cnn(C)c4)C3)nc(-c3ccc(Cl)cn3)c2nc1C [Example 291, (S)-4-(4-(5-chloropyridin-2-yl)-6,7-dimethylpteridin-2-yl)-2-(1-methyl-1H-pyrazol-4-yl)morpholine]

hTREM2 Emax, ++ (Emax>100 and ≤150):
Cc1nc2nc(N3CCO[C@@H](c4cnn(C)c4)C3)nc(C3CCCC3)c2nc1C [Example 140, 4-cyclopentyl-6,7-dimethyl-2-((2S)-2-(1-methyl-1H-pyrazol-4-yl)-4-morpholinyl)pteridine]
Cc1ccc2c(n1)nc(N1CCO[C@@H](c3cnn(C)c3)C1)nc2[C@H]1CC[C@@H](C(F)(F)F)CC1 [Example 142, 7-methyl-2-((2S)-2-(1-methyl-1H-pyrazol-4-yl)-4-morpholinyl)-4-(cis-4-(trifluoromethyl)cyclohexyl)pyrido [2,3-d]pyrimidine]
Cn1cc([C@H]2CN(c3nc(-c4ccc(Cl)cc4F)c4ccc(Cl)nc4n3)CCO2)cn1 [Example 283, (S)-4-(7-chloro-4-(4-chloro-2-fluorophenyl)pyrido[2,3-d]pyrimidin-2-yl)-2-(1-methyl-1H-pyrazol-4-yl)morpholine]
Cc1cnc2c(n1)nc(N1CCO[C@@H](c3cnn(C)c3)C1)nc2[C@H]1C[C@H](C(F)(F)F)C1 [Example 11, 7-methyl-2-((2S)-2-(1-methyl-1H-pyrazol-4-yl)-4-morpholinyl)-4-(trans-3-(trifluoromethyl)cyclobutyl)pteridine]
